Source: the SangsterLogP compilation

settings: pH 2.0

Structure (SMILES) | logD
Cc1ccccc1O[C@@H]1C(=O)N(Cc2ccc3c(c2)OCO3)[C@H]1c1ccc2c(c1)OCO2 | 4.37
COC(=O)C(=O)C1=C(c2ccc(Cl)cc2)NC(=O)N[C@@H]1c1ccc(Cl)cc1 | 3.56
O=C(COC(=O)/C=C/c1ccc(F)cc1)Nc1cc(C(F)(F)F)ccc1N1CCOCC1 | 5.08
C[C@H](NC1=NS(=O)(=O)c2ccccc21)C(=O)OCC(=O)/C=C1/N(C)c2ccccc2C1(C)C | 4.21

same assay, conditions: pH 5.0

Structure (SMILES) | logD
CCC(=O)N1c2ccccc2NC2=C(C(=O)CC(C)(C)C2)[C@H]1c1ccc(-c2ccc([N+](=O)[O-])cc2Cl)o1 | 5.55
O=C(OCCN1C(=O)c2ccccc2C1=O)[C@@H]1C[C@H](O)CN1S(=O)(=O)c1ccc(Cl)cc1 | 3.65
COc1ccc([C@@H]2CC(=O)N(c3sc4c(c3C#N)CCCC4)C3=C2C(=O)CCC3)c(OC)c1 | 4.55
COc1cccc(C(=O)N2CCC[C@H](c3ccccc3)C2)c1 | 4.04
Cc1onc(-c2c(F)cccc2Cl)c1C(=O)OCC(=O)N1[C@H](C)CCC[C@H]1C | 4.38
CC[C@H](C(=O)N1CCCN(C(=O)[C@@H](CC)c2ccccc2)CC1)c1ccccc1 | 4.93
Cc1c(CN(C)C(=O)[C@@H](C)n2nc(C(F)F)c(Br)c2C)cnn1C | 3.12
COc1ccc(C(=O)OCC(=O)c2cc(C)n(C[C@@H]3CCCO3)c2C)c(OC)c1 | 4.18
CCOC(=O)c1c(NC=C2C(=O)N(C)C(=O)N(C)C2=O)sc2c1CC[C@@H](CC)C2 | 5.76
CCN(C(=O)COC(=O)/C(=C/c1ccc(Cl)cc1)c1ccc(F)cc1)[C@@H]1CCS(=O)(=O)C1 | 4.95
Cc1ccc(-c2nc3n(n2)C(=O)C[C@H](c2cccc([N+](=O)[O-])c2)S3)cc1 | 4.49
Cc1cccc(NC(=O)Cc2ccc(Br)cc2)c1C | 4.05
C#CCN1C(=O)[C@H]2CC[C@@](C)(C1=O)C2(C)C | 2.28
O=C(NC[C@H]1CCCO1)c1cc2nc(C3CC3)cc(C(F)(F)F)n2n1 | 3.33
CCC[C@@H]1C(=O)C[C@H](C(C)C)C(C#N)(C#N)C1(C#N)C#N | 3.3
CC1(C)CC(=O)C2=C(C1)OC(N)=C(C#N)[C@H]2c1ccc(C(F)(F)F)cc1 | 4.55
CC(=O)Nc1ccc(C(=O)N(Cc2ccco2)C2(C(=O)Nc3c(C)cccc3C)CCCCC2)cc1 | 4.62

Structure (SMILES) | logD
O=C1/C(=C/c2c(Sc3ccccc3)nc3ccccn3c2=O)SC(=S)N1C[C@H]1CCCO1 | 5.87
O=C(Nc1ccc(C(F)(F)F)cc1)[C@H]1CCc2ccccc2O1 | 4.5
CCOC(=O)c1c(N2C(=O)[C@@H]3CC(C)=C(C)C[C@H]3C2=O)sc(C)c1C | 4.56
Cc1c(NC(=O)[C@@H]2CCCCN2S(=O)(=O)c2ccc(Cl)cc2)c(=O)n(-c2ccccc2)n1C | 3.89
O=C(/C=C/Nc1cccc(C(F)(F)F)c1)c1ccc(Br)cc1 | 5.65
C[C@@H](OC(=O)c1cccc(C(F)(F)F)c1)C(N)=O | 2.75
C[C@@H](Oc1ccccc1)C(=O)Nc1ccc(OC(F)(F)F)cc1 | 4.77
COc1cccc(NC(=O)[C@H](OC(=O)C2=COCCO2)c2ccccc2)c1 | 3.81
CCOc1cc(C(=O)Nc2ccc(OC)c(OC)c2)cc(OCC)c1OCC | 4.11
COc1cc([C@H]2C(C(=O)c3ccccc3)=C(N)N(c3ccccc3C(F)(F)F)C3=C2C(=O)CCC3)cc(OC)c1OC | 4.51
COc1ccc([C@@H]2C3=C(C[C@H](c4ccco4)CC3=O)Nc3ccccc3N2C(=O)C(F)(F)F)cc1 | 4.62
CC1CCN(S(=O)(=O)N2CCC(C(=O)N[C@@H](C)c3ccccc3)CC2)CC1 | 4.92
O=C(Cc1coc2cc3c(cc12)CCC3)O[C@H]1CCCCC1=O | 4.43
CCCN(CCC)S(=O)(=O)c1ccc(C(=O)OCCN2C(=O)C3C4c5ccccc5C(c5ccccc54)C3C2=O)cc1 (configuration not stated) | 4.17
C[C@@H]1C=CC[C@@H]2C(=O)N(c3cccc(C(=O)OCC(=O)c4ccc(Br)cc4)c3)C(=O)[C@H]12 | 5.29
C[C@@]1(c2ccc(Cl)cc2)NC(=S)N2[C@@H]1NC(=S)N2c1ccc(Cl)cc1 | 4.94
O=C(c1sc2cc(Cl)ccc2c1Cl)N1CCN(C(=S)NC[C@H]2CCCO2)CC1 | 4.83

same assay, conditions: pH 6.5

Structure (SMILES) | logD
COC(=O)c1cc(N2C(=O)[C@H]3[C@@H](C2=O)[C@]2(C(OC(C)=O)OC(C)=O)C=C[C@H]3O2)ccc1Cl | 3.77
CN(c1ccccc1)S(=O)(=O)c1ccc(C(=O)/N=c2/sc3cc([N+](=O)[O-])ccc3n2C)cc1 | 5.84
C=CCOc1cccc([C@@H]2c3c(oc4ccccc4c3=O)C(=O)N2c2nnc(C)s2)c1 | 4.52
Cc1cccc(NC(=O)C[C@@H]2S/C(=N\c3c(C)cccc3C)N(C)C2=O)c1 | 4.75
CC(C)(C)S(=O)(=O)/C(C#N)=C/Nc1ccc(OC(F)(F)F)cc1 | 4.28
CCCCNC(=S)N(C)/N=C/c1ccc(OCc2ccc(Cl)cc2)c(OC)c1 | 6.8
COc1ccc(N2C(=S)N=C(N[C@@H]([C@@H](Oc3ccc(Cl)cc3)n3cncn3)C(C)(C)C)C2(C)C)cc1 | 5.56

same assay, conditions: pH 7.3

Structure (SMILES) | logD
CCOC(=O)C1=C(N)n2c(s/c(=C\c3ccc(C(=O)OC)cc3)c2=O)=C(C(=O)OC)C1c1ccc(C(=O)OC)cc1 (configuration not stated) | 6.95
CSc1ncc2c(n1)-c1c(SC)sc(C(=O)Nc3ccc(Cl)cc3)c1CC2 | 5.87
O=C(Nc1ccccc1)[C@H]1CC(=O)N(Cc2ccccc2)/C(=N/c2ccc(F)cc2)S1 | 6
CCOc1ccc(Br)cc1[C@H]1C2=C(CC(C)(C)CC2=O)Nc2ncnn21 | 3.85
CCOP(=O)(Cc1ccc(CP(=O)(OCC)OCC)o1)OCC | 3.25

same assay, conditions: pH 8.0

Structure (SMILES) | logD
COc1ccc([C@@H](C)n2c(C)c3c(C)nnc(C)c3c2C)cc1 | 3.43

same assay, conditions: pH 10.0

Structure (SMILES) | logD
CC1=C(C(=O)OCCc2ccccc2)[C@@H](c2ccc3c(c2)OCO3)C2=C(C[C@H](c3cccs3)CC2=O)N1 | 5.44
Cc1cc(C(F)(F)F)nn1[C@@H](C)c1nnc(Nc2ccn(Cc3ccccc3)n2)s1 | 5.34
CCOCCOC(=O)C1=C(C)NC2=C(C(=O)CCC2)[C@@H]1c1ccc(C)cc1 | 3.89
NC(=O)c1cc(N2C(=O)[C@H]3CC=CC[C@@H]3C2=O)ccc1N1CCCCC1 | 3.68
COc1ccccc1[C@H]1CC(=O)C2=C(C1)NC(C)=C(C(=O)OC1CCCC1)[C@H]2c1ccc(OC(C)=O)cc1 | 5.81
COc1ccc2c(c1)C(=O)N(Cc1ccco1)C(=O)/C2=C\Nc1c(C)n(C)n(-c2ccccc2)c1=O | 4.66
C[C@H]1CN(C(=O)c2cc(-c3ccc4c(c3)OCO4)nc3ccccc23)C[C@H](C)O1 | 4.19
N#CC1=C(N)OC2=C(C(=O)C[C@H](c3ccccc3)C2)[C@H]1c1ccccc1F | 3.07
CC(C)(C)C(=O)[C@H]1[C@H](c2ccsc2)C(C#N)(C#N)[C@H]2C=Cc3ccccc3N12 | 3.37

same assay, conditions: pH 10.5

Structure (SMILES) | logD
C=CCn1/c(=N/C(=O)c2cc(OC)c(OC)c(OC)c2)sc2cccc(OC)c21 | 5.14
O=[N+]([O-])c1ccc(-c2nc3nc4ccccc4nc3n2C[C@@H]2CCCO2)cc1 | 3.75
C/C(=C\c1ccco1)[C@H]1C(C#N)=C(N)Oc2n[nH]c(-c3ccccc3)c21 | 4.82
CCc1cc2c3c(c1)[C@]1(C(=O)N3C(C)(C)C=C2C)C(C#N)=C(N)OC2=C1C(=O)CC(C)(C)C2 | 5.39
Cc1cc(C)n(CCOC(=O)[C@H]2[C@H](C=C(Cl)Cl)C2(C)C)n1 | 4.76
Cn1c(N)c(C(=O)CSc2nc3sc4c(c3c(=O)n2Cc2ccccc2)CCC4)c(=O)n(C)c1=O | 5.21
N#C/C(=C/c1ccc2c(c1)OCO2)C(=O)N=C1c2ccccc2CN1c1cccc([N+](=O)[O-])c1 | 5.4
